From patent US11591341B2 (ALIGOS THERAPEUTICS, INC., priority 2019, dated 2023)

Tested on: HBV
Assay: HBV-DNA Antiviral Assay Using HepG2.117 Cells (intracellular HBV DNA by qPCR)
Type: cell-based, hepatitis B virus (genotype D)
Details: Hepatitis B virus, HepG2.117
Summary of the method: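 Endpoint: qPCR copy number of intracellular HBV DNA after 3-day compound exposure, with inhibition set relative to the 2% DMSO control. The cells were doxycycline-free HepG2.117 carrying a Tet-off genotype D genome, dosed at nine 4-fold dilutions. A duplicate plate gave ATP-based viability (CC50).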

`COc1ccc(-n2c(C(=O)N[C@H](c3ccccc3)C(F)F)c3n(c2=O)CCN(C(=O)c2ccc(Br)c(Cl)c2)C3)cc1` (stereo in doubt) [Example 253, 7-(4-bromo-3-chloro-benzoyl)-2-(4-methoxyphenyl)-3-oxo-N-[rac-(1R)-2,2-difluoro-1-phenyl-ethyl]-6,8-dihydro-5H-imidazo[1,5-a]pyrazine-1-carboxamide] showed an EC50 of 100 to 500 nM.
For `C[C@@H](NC(=O)c1c2n(c(=O)n1-c1ccc(OCC(F)(F)F)cc1)CCN(C(=O)c1ccc(Br)c(Cl)c1)C2)c1ccccc1F` (stereo in doubt) [Example 262, 7-(4-bromo-3-chloro-benzoyl)-3-oxo-N-[rac-(1R)-1-(2-fluorophenyl)ethyl]-2-[4-(2,2,2-trifluoroethoxy)phenyl]-6,8-dihydro-5H-imidazo[1,5-a]pyrazine-1-carboxamide], the EC50 was 100 to 500 nM.
Work on `C[C@H](NC(=O)c1c2n(c(=O)n1-c1ccc(OCC(F)(F)F)cc1)CCN(C(=O)c1ccc(Br)c(Cl)c1)C2)c1ccccc1F` (stereo in doubt) [Example 264, 7-(4-bromo-3-chloro-benzoyl)-3-oxo-N-[rac-(1S)-1-(2-fluorophenyl)ethyl]-2-[4-(2,2,2-trifluoroethoxy)phenyl]-6,8-dihydro-5H-imidazo[1,5-a]pyrazine-1-carboxamide] yielded an EC50 of 500 to 5000 nM.
`C[C@@H](Oc1ccc(-n2c(C(=O)NCc3ccccc3)c3n(c2=O)CCN(C(=O)c2ccc(Br)c(Cl)c2)C3)cc1)C(F)(F)F` (stereo in doubt) [Example 282, N-benzyl-7-(4-bromo-3-chloro-benozyl)-3-oxo-2-[4-[rac-(1R)-2,2,2-trifluoro-1-methyl-ethoxy]phenyl]-6,8-dihydro-5H-imidazo[1,5-a]pyrazine-1-carboxamide] showed an EC50 of 500 to 5000 nM.
Work on `C[C@H](Oc1ccc(-n2c(C(=O)NCc3ccccc3)c3n(c2=O)CCN(C(=O)c2ccc(Br)c(Cl)c2)C3)cc1)C(F)(F)F` (stereo in doubt) [Example 283, N-benzyl-7-(4-bromo-3-chloro-benozyl)-3-oxo-2-[4-[rac-(1S)-2,2,2-trifluoro-1-methyl-ethoxy]phenyl]-6,8-dihydro-5H-imidazo[1,5-a]pyrazine-1-carboxamide] yielded an EC50 of 500 to 5000 nM.
In the case of `COc1ccc(CN2Cc3c4n(c(=O)n3C[C@H](O)C2)CCN(C(=O)c2ccc(Br)c(Cl)c2)C4)c(F)c1` (stereo in doubt) [Example 288, rac-(11R)-4-(4-bromo-3-chloro-benzoyl-13-[(2-fluoro-4-methoxy-phenyl)methyl]-11-hydroxy-4,7,9,13-tetrazatricyclo[7.5.0.0^2,7]tetradec-1-ene-8,14-dione], the EC50 is reported as 100 to 500 nM.
`COc1ccc(CN2Cc3c4n(c(=O)n3C[C@@H](O)C2)CCN(C(=O)c2ccc(Br)c(Cl)c2)C4)c(F)c1` (stereo in doubt) [Example 289, rac-(11S)-4-(4-bromo-3-chloro-benzoyl)-13-[(2-fluoro-4-methoxy-phenyl)methyl]-11-hydroxy-4,7,9,13-tetrazatricyclo[7,5.0.0^2,7]tetradec-1-ene-8,14-dione] was tested, and the EC50 was 100 to 500 nM.
`C[C@@H](NC(=O)c1c2n(c(=O)n1-c1ccc(OC3CC3)cc1)CCN(C(=O)c1ccc(Br)c(Cl)c1)C2)c1ccc(OC(F)(F)F)cc1F` (stereo in doubt) [Example 290, 7-(4-bromo-3-chloro-benzoyl)-2-[4-(cyclopropoxy)phenyl]-3-oxo-N-[rac-(1R)-1-[2-fluoro-4-(trilfuoromethoxy)phenyl]ethyl]-6,8-dihydro-5H-imidazo[1,5-a]pyrazine-1-carboxamide] gave an EC50 of 500 to 5000 nM.
`C[C@H](NC(=O)c1c2n(c(=O)n1-c1ccc(OC3CC3)cc1)CCN(C(=O)c1ccc(Br)c(Cl)c1)C2)c1ccc(OC(F)(F)F)cc1F` (stereo in doubt) [Example 291, 7-(4-bromo-3-chloro-benzoyl)-2-[4-(cyclopropoxy)phenyl]-3-oxo-N-[rac-(1S)-1-[2-fluoro-4-(trifluoromethoxy)phenyl]ethyl]-6,8-dihydro-5H-imidazo[1,5-a]pyrazine-1-carboxamide] was tested, and the EC50 was 500 to 5000 nM.
With `CO[C@@H]1CN(Cc2ccccc2)Cc2c3n(c(=O)n2C1)CCN(C(=O)c1ccc(Br)c(Cl)c1)C3` (stereo in doubt) [Example 309, rac-(11R)-13-benzyl-4-(4-bromo-3-choro-benzoyl)-11-methoxy-4,7,9,13-tetrazatricyclo[7.5.0.0^2,7]tetradec-1-ene-8,14-dione] the EC50 was 500 to 5000 nM.
In the case of `CO[C@H]1CN(Cc2ccccc2)Cc2c3n(c(=O)n2C1)CCN(C(=O)c1ccc(Br)c(Cl)c1)C3` (stereo in doubt) [Example 310, rac-(11S)-13-benzyl-4-(4-bromo-3-chloro-benzoyl)-11-methoxy-4,7,9,13-tetrazatricyclo[7.5.0.0^2,7]tetradec-1-ene-8,14-dione], the EC50 is reported as 100 to 500 nM.
`C[C@H](NC(=O)c1c2n(c(=O)n1-c1ccc(OC3CC3)cc1)CCN(C(=O)c1ccc(Br)c(Cl)c1)C2)c1ccc(OCC(N)=O)cc1F` (stereo in doubt) [Example 315, 7-(4-bromo-3-chloro-benzoyl)-2-[4-(cyclopropoxy)phenyl]-3-oxo-N-[rac-(1R)-1-[4-(2-amino-2-oxo-ethoxy)-2-fluoro-phenyl]ethyl]-6,8-dihydro-5H-imidazo[1,5-a]pyrazine-1-carboxamide] was tested, and the EC50 was 500 to 5000 nM.
`C[C@@H](NC(=O)c1c2n(c(=O)n1-c1ccc(OC3CC3)cc1)CCN(C(=O)c1ccc(Br)c(Cl)c1)C2)c1ccc(OCC(N)=O)cc1F` (stereo in doubt) [Example 316, 7-(4-bromo-3-chloro-benzoyl)-2-[4-(cyclopropoxy)phenyl]-3-oxo-N-[rac-(1S)-1-[4-(2-amino-2-oxo-ethoxy)-2-fluoro-phenyl]ethyl]-6,8-dihydro-5H-imidazo[1,5-a]pyrazine-1-carboxamide] showed an EC50 of under 100 nM.
Work on `C[C@@H](NC(=O)c1c2n(c(=O)n1-c1ccc(OCC(F)(F)F)cc1)CCN(C(=O)c1ccc(Br)c(Cl)c1)C2)c1ccc(OC(F)F)cc1F` (stereo in doubt) [Example 317, 7-(4-bromo-3-chloro-benzoyl)-3-oxo-N-[rac-(1R)-1-[4-(difluoromethoxy)-2-fluoro-phenyl]ethyl]-2-[4-(2,2,2-trifluoroethoxy)phenyl]-6,8-dihydro-5H-imidazo[1,5-a]pyrazine-1-carboxamide] yielded an EC50 of 500 to 5000 nM.
For `C[C@H](NC(=O)c1c2n(c(=O)n1-c1ccc(OCC(F)(F)F)cc1)CCN(C(=O)c1ccc(Br)c(Cl)c1)C2)c1ccc(OC(F)F)cc1F` (stereo in doubt) [Example 318, 7-(4-bromo-3-chloro-benzoyl)-3-oxo-N-[rac-(1S)-1-[4-(difluoromethoxy)-2-fluoro-phenyl]ethyl]-2-[4-(2,2,2-trifluoroethoxy)phenyl]-6,8-dihydro-5H-imidazo[1,5-a]pyrazine-1-carboxamide], the EC50 was 100 to 500 nM.
`C[C@@H](NC(=O)c1c2n(c(=O)n1-c1ccc(OCC(F)(F)F)cc1)CCN(C(=O)c1ccc(Br)c(Cl)c1)C2)c1ccc(OCC(N)=O)cc1F` (stereo in doubt) [Example 319, 7-(4-bromo-3-chloro-benzoyl)-3-oxo-N-[rac-(1R)-1-[4-(2-amino-2-oxo-ethoxy)-2-fluoro-phenyl]ethyl]-2-[4-(2,2,2-trifluoroethoxy)phenyl]-6,8-dihydro-5H-imidazo[1,5-a]pyrazine-1-carboxamide] gave an EC50 of 500 to 5000 nM.
`C[C@H](NC(=O)c1c2n(c(=O)n1-c1ccc(OCC(F)(F)F)cc1)CCN(C(=O)c1ccc(Br)c(Cl)c1)C2)c1ccc(OCC(N)=O)cc1F` (stereo in doubt) [Example 320, 7-(4-bromo-3-chloro-benzoyl)-3-oxo-N-[rac-(1S)-1-[4-(2-amino-2-oxo-ethoxy)-2-fluoro-phenyl]ethyl]-2-[4-(2,2,2-trifluoroethoxy)phenyl]-6,8-dihydro-5H-imidazo[1,5-a]pyrazine-1-carboxamide] showed an EC50 of 100 to 500 nM.
Molecule `C[C@H](NC(=O)c1c2n(c(=O)n1-c1ccc(OCC(F)(F)F)cc1)CCN(C(=O)c1ccc(Br)c(Cl)c1)C2)c1ccc(OC(C)(C)C(N)=O)cc1F` (stereo in doubt) [Example 336, 7-(4-bromo-3-chloro-benzoyl)-3-oxo-N-[rac-(1S)-1-[4-(2-amino-1,1-dimethyl-2-oxo-ethoxy)-2-fluoro-phenyl]ethyl]-2-[4-(2,2,2-trifluoroethoxy)phenyl]-6,8-dihydro-5H-imidazo[1,5-a]pyrazine-1-carboxamide] has an EC50 of 100 to 500 nM.
In the case of `C[C@@H](NC(=O)c1c2n(c(=O)n1-c1ccc(OCC(F)(F)F)cc1)CCN(C(=O)c1ccc(Br)c(Cl)c1)C2)c1ccc(OC(C)(C)C(N)=O)cc1F` (stereo in doubt) [Example 337, 7-(4-bromo-3-chloro-benzoyl)-3-oxo-N-[rac-(1R)-1-[4-(2-amino-1,1-dimethyl-2-oxo-ethoxy)-2-fluoro-phenyl]ethyl]-2-[4-(2,2,2-trifluoroethoxy)phenyl]-6,8-dihydro-5H-imidazo[1,5-a]pyrazine-1-carboxamide], the EC50 is reported as 100 to 500 nM.
`C[C@H](NC(=O)c1c2n(c(=O)n1-c1ccc(OC3CC3)cc1)CCN(C(=O)c1ccc(Br)c(Cl)c1)C2)c1ccc(OC(C)(C)C(N)=O)cc1F` (stereo in doubt) [Example 338, 7-(4-bromo-3-chloro-benzoyl)-2-[4-(cyclopropoxy)phenyl]-3-oxo-N-[rac-(1S)-1-[4-(2-amino-1,1-dimethyl-2-oxo-ethoxy)-2-fluoro-phenyl]ethyl]-6,8-dihydro-5H-imidazo[1,5-a]pyrazine-1-carboxamide] was tested, and the EC50 was 100 to 500 nM.
For `C[C@@H](NC(=O)c1c2n(c(=O)n1-c1ccc(OC3CC3)cc1)CCN(C(=O)c1ccc(Br)c(Cl)c1)C2)c1ccc(OC(C)(C)C(N)=O)cc1F` (stereo in doubt) [Example 339, 7-(4-bromo-3-chloro-benzoyl)-2-[4-(cyclopropoxy)phenyl]-3-oxo-N-[rac-(1R)-1-[4-(2-amino-1,1-dimethyl-2-oxo-ethoxy)-2-fluoro-phenyl]ethyl]-6,8-dihydro-5H-imidazo[1,5-a]pyrazine-1-carboxamide], the EC50 was 100 to 500 nM.
